Experimental data reported in patent publication US20210315837A1, “CANNABINOIDS FOR THE TREATMENT OF GRAM-POSITIVE INFECTIONS INCLUDING ANTIBIOTIC-RESISTANT BACTERIAL STRAINS” (priority 2018, published 2021).
In brackets after ≈: the same amount, converted by molar mass. Several values for one entry are separate records, joined by “and”; a condition that tells them apart may be missing. Equal values may be shown once.

What follows are compounds tested on MRS USA 300 (assay: IC50, MIC and MBC against MRS USA 300). Details: MRS USA 300; tested Conc. in μg/mL.
Assay type: cell-based, Staphylococcus aureus
Experimental: (§1) As used herein, the term “minimum inhibitory concentration (MIC)” refers to the lowest concentration of an antimicrobial agent that will inhibit the visible growth of a microorganism after overnight incubation. MIC values against bacteria may be determined by standard methods. See also P. A. Wayne, Methods for Dilution Antimicrobial Tests for Bacteria that Grow Aerobically; Approved Standard, Ninth Edition, 2012, CLSI Document M07-A9, Vol. 32 No. 2, which is incorporated by reference herein in its entirety.
`CCCCCc1cc(O)c(C/C=C(\C)CCC=C(C)C)c(O)c1C(=O)O` [Cannabigerolic acid] was tested, and the MIC was 8.33. Compound `O=C(O)c1cn(C2CC2)c2cc(N3CCNCC3)c(F)cc2c1=O` [Ciprofloxacin, reference compound] has an MBC of 0.67 and an MIC of 0.5 ± 0. In the case of `C/C(=C\C(=O)OCCCCCCCCC(=O)O)C[C@@H]1OC[C@H](C[C@@H]2O[C@H]2[C@@H](C)[C@H](C)O)[C@@H](O)[C@H]1O` [Mupirocin, reference compound], the MIC is reported as 0.23. For `CCCCCc1cc(O)c2c(c1)OC(C)(C)[C@@H]1CC=C(C)C[C@@H]21` [Δ8-Tetrahydrocannabinol], the IC50 was 1.91 and the MIC was 5 ± 0. In the case of Methyl tetrahydrocannabigerol, the IC50 is reported as 1.76 and 1.26. For Tetrahydrocannabigerolic acid, the IC50 was 2.98 and the MIC was 20 ± 0.

Same assay, conditions: Staphylococcus aureus, USA300
In the case of `CCCCCc1cc(O)c2c(c1)OC(C)(CCC=C(C)C)C=C2` (centres unmarked) [Cannabichromene], the IC50 is reported as 6.44 µg/mL (≈ 20.5 µM). `CCCCCc1cc(O)c(C/C=C(\C)CCC=C(C)C)c(O)c1C(=O)O` [Cannabigerolic acid] showed an IC50 of 1.52 µg/mL (≈ 4.22 µM). `O=C(O)c1cn(C2CC2)c2cc(N3CCNCC3)c(F)cc2c1=O` [Ciprofloxacin, reference compound] showed an IC50 of 0.13 µg/mL (≈ 0.392 µM). `COc1cccc(OC)c1C(=O)N[C@@H]1C(=O)N2[C@@H]1SC(C)(C)[C@@H]2C(=O)O` [Methicillin, reference compound] was tested, and the IC50 was 70.2 µM and 26.7 µg/mL, the MBC was greater than 131 µM and the MIC was greater than 131 µM. With `C/C(=C\C(=O)OCCCCCCCCC(=O)O)C[C@@H]1OC[C@H](C[C@@H]2O[C@H]2[C@@H](C)[C@H](C)O)[C@@H](O)[C@H]1O` [Mupirocin, reference compound] the IC50 was 80 nM and 0.04 µg/mL, the MBC was 3.76 ± 1.76 µM (≈ 1.88 µg/mL) and the MIC was 0.46 ± 0.22 µM (≈ 0.23 µg/mL).

The compounds below were run on MRS 1708 (Mupirocin-resistant) (assay: IC50, MIC and MBC against MRS 1708 (Mupirocin-resistant)). Details: Mupirocin-resistant MRS (Table 11).
Assay type: cell-based, Staphylococcus aureus
Set-up: AMC: unit not given here
Experimental: as §1
With `COc1cccc(OC)c1C(=O)N[C@@H]1C(=O)N2[C@@H]1SC(C)(C)[C@@H]2C(=O)O` [Methicillin, reference compound] the AMC was 25 ± 0. With `CCCCCc1cc(O)c2c(c1)OC(C)(C)[C@@H]1CC=C(C)C[C@@H]21` [Δ8-Tetrahydrocannabinol] the AMC was 10 ± 8.66. With Methyl tetrahydrocannabigerol the AMC was 8.33 ± 2.89.

Same assay, conditions: Mupirocin-resistant MRS (Table 11); in µg/mL
`CCCCCc1cc(O)c2c(c1)OC(C)(C)[C@@H]1CC=C(C)C[C@@H]21` [Δ8-Tetrahydrocannabinol] showed an IC50 of 1.82 ± 0.08. In the case of Tetrahydrocannabigerolic acid, the IC50 is reported as 3.24 ± 0.13.

Same assay, conditions: Staphylococcus aureus
Compound `CCCCCc1cc(O)c2c(c1)OC(C)(CCC=C(C)C)C=C2` (centres unmarked) [Cannabichromene] has an IC50 of 5.04 ± 0.55 µg/mL. `CCCCCc1cc(O)c(C/C=C(\C)CCC=C(C)C)c(O)c1C(=O)O` [Cannabigerolic acid] gave an IC50 of 1.55 ± 0.27 µg/mL. With `COc1cccc(OC)c1C(=O)N[C@@H]1C(=O)N2[C@@H]1SC(C)(C)[C@@H]2C(=O)O` [Methicillin, reference compound] the IC50 was 7.31 µM and 2.78 µg/mL, the MBC was 65.7 µM (≈ 25 µg/mL) and the MIC was 65.7 µM (≈ 25 µg/mL). For `C/C(=C\C(=O)OCCCCCCCCC(=O)O)C[C@@H]1OC[C@H](C[C@@H]2O[C@H]2[C@@H](C)[C@H](C)O)[C@@H](O)[C@H]1O` [Mupirocin, reference compound], the IC50 was greater than 100 µM, the MBC was greater than 100 µM and the MIC was greater than 100 µM.

Each compound was assayed on MRS 33591 (assay: IC50, MIC and MBC against MRS 33591). Details: MRS 33591; tested Conc. in μg/mL.
Assay type: cell-based, Staphylococcus aureus
Experimental: as §1
`O=C(O)c1cn(C2CC2)c2cc(N3CCNCC3)c(F)cc2c1=O` [Ciprofloxacin, reference compound] gave an MBC of 0.67. In the case of `C/C(=C\C(=O)OCCCCCCCCC(=O)O)C[C@@H]1OC[C@H](C[C@@H]2O[C@H]2[C@@H](C)[C@H](C)O)[C@@H](O)[C@H]1O` [Mupirocin, reference compound], the MBC is reported as 2.08. `CCCCCc1cc(O)c2c(c1)OC(C)(C)[C@@H]1CC=C(C)C[C@@H]21` [Δ8-Tetrahydrocannabinol] showed an IC50 of 1.43, an MBC of 10 ± 0 and an MIC of 2.5 ± 0. In the case of Methyl tetrahydrocannabigerol, the IC50 is reported as 1.83 and 1.39. In the case of Tetrahydrocannabigerolic acid, the IC50 is reported as 4.33 and the MIC is reported as 20 ± 0.

Same assay, conditions: Staphylococcus aureus
For `CCCCCc1cc(O)c2c(c1)OC(C)(CCC=C(C)C)C=C2` (centres unmarked) [Cannabichromene], the IC50 was 2.58 µg/mL and the MIC was 5 µg/mL. `CCCCCc1cc(O)c(C/C=C(\C)CCC=C(C)C)c(O)c1C(=O)O` [Cannabigerolic acid] gave an IC50 of 2.29 µg/mL and an MIC of 13.3 µg/mL. Work on `O=C(O)c1cn(C2CC2)c2cc(N3CCNCC3)c(F)cc2c1=O` [Ciprofloxacin, reference compound] yielded an IC50 of 0.12 µg/mL and an MIC of 0.67 µg/mL. In the case of `COc1cccc(OC)c1C(=O)N[C@@H]1C(=O)N2[C@@H]1SC(C)(C)[C@@H]2C(=O)O` [Methicillin, reference compound], the IC50 is reported as greater than 131 µM, the MBC is reported as greater than 131 µM and the MIC is reported as greater than 131 µM. In the case of `C/C(=C\C(=O)OCCCCCCCCC(=O)O)C[C@@H]1OC[C@H](C[C@@H]2O[C@H]2[C@@H](C)[C@H](C)O)[C@@H](O)[C@H]1O` [Mupirocin, reference compound], the IC50 is reported as 80 nM and 0.04 µg/mL, the MBC is reported as 4.15 ± 2.6 µM (≈ 2.08 µg/mL) and the MIC is reported as 0.44 µM and 0.22 µg/mL.

The compounds below were run on MRS USA 400 (assay: IC50, MIC and MBC against MRS USA 400). Details: MRS USA 400; tested Conc. in μg/mL.
Assay type: cell-based, Staphylococcus aureus
Experimental: as §1
For `CCCCCc1cc(O)c(C/C=C(\C)CCC=C(C)C)c(O)c1C(=O)O` [Cannabigerolic acid], the MIC was 5 ± 0. For `COc1cccc(OC)c1C(=O)N[C@@H]1C(=O)N2[C@@H]1SC(C)(C)[C@@H]2C(=O)O` [Methicillin, reference compound], the MBC was 41.67 and the MIC was 25 ± 0. For `C/C(=C\C(=O)OCCCCCCCCC(=O)O)C[C@@H]1OC[C@H](C[C@@H]2O[C@H]2[C@@H](C)[C@H](C)O)[C@@H](O)[C@H]1O` [Mupirocin, reference compound], the MBC was 0.94 ± 0.44 and the MIC was 0.16 ± 0. `CCCCCc1cc(O)c2c(c1)OC(C)(C)[C@@H]1CC=C(C)C[C@@H]21` [Δ8-Tetrahydrocannabinol] was tested, and the IC50 was 2.55 and the MIC was 10 ± 0. Methyl tetrahydrocannabigerol was tested, and the IC50 was 1.91 and 1.42. With Tetrahydrocannabigerolic acid the IC50 was 2.79 and the MIC was 13.33.

Same assay, conditions: Staphylococcus aureus, USA400
In the case of `CCCCCc1cc(O)c2c(c1)OC(C)(CCC=C(C)C)C=C2` (centres unmarked) [Cannabichromene], the IC50 is reported as 7.28 µg/mL (≈ 23.2 µM). Work on `CCCCCc1cc(O)c(C/C=C(\C)CCC=C(C)C)c(O)c1C(=O)O` [Cannabigerolic acid] yielded an IC50 of 1.67 µg/mL (≈ 4.63 µM). With `COc1cccc(OC)c1C(=O)N[C@@H]1C(=O)N2[C@@H]1SC(C)(C)[C@@H]2C(=O)O` [Methicillin, reference compound] the IC50 was 8.78 µM and 3.34 µg/mL, the MBC was 110 ± 37.9 µM (≈ 41.7 µg/mL) and the MIC was 65.7 µM (≈ 25 µg/mL). With `C/C(=C\C(=O)OCCCCCCCCC(=O)O)C[C@@H]1OC[C@H](C[C@@H]2O[C@H]2[C@@H](C)[C@H](C)O)[C@@H](O)[C@H]1O` [Mupirocin, reference compound] the IC50 was 80 nM and 0.04 µg/mL, the MBC was 1.88 ± 0.88 µM (≈ 0.941 µg/mL) and the MIC was 0.32 µM (≈ 0.16 µg/mL).

Each compound was assayed on S. aureus 29213 (assay: IC50, MIC and MBC against S. aureus 29213). Details: S. aureus 29213; tested Conc. in μg/mL.
Assay type: cell-based
Experimental: As used herein, the term “minimum inhibitory concentration (MIC)” refers to the lowest concentration of an antimicrobial agent that will inhibit the visible growth of a microorganism after overnight incubation. MIC values against bacteria may be determined by standard methods.
With `O=C(O)c1cn(C2CC2)c2cc(N3CCNCC3)c(F)cc2c1=O` [Ciprofloxacin, reference compound] the MBC was 0.67. Work on `C/C(=C\C(=O)OCCCCCCCCC(=O)O)C[C@@H]1OC[C@H](C[C@@H]2O[C@H]2[C@@H](C)[C@H](C)O)[C@@H](O)[C@H]1O` [Mupirocin, reference compound] yielded an MBC of 1.25 ± 0. `CCCCCc1cc(O)c2c(c1)OC(C)(C)[C@@H]1CC=C(C)C[C@@H]21` [Δ8-Tetrahydrocannabinol] was tested, and the MIC was 2.5 ± 0. Compound Methyl tetrahydrocannabigerol has an MBC of 10 ± 0. Work on Tetrahydrocannabigerolic acid yielded an MIC of 20 ± 0.

Same assay, conditions: S. aureus 29213; tested Conc. in μg/mL; NA given without definition
`CCCCCc1cc(O)c2c(c1)OC(C)(C)[C@@H]1CC=C(C)C[C@@H]21` [Δ8-Tetrahydrocannabinol] gave an IC50 of 1.47. Methyl tetrahydrocannabigerol was tested, and the IC50 was 1.8 and 1.53. Work on Tetrahydrocannabigerolic acid yielded an IC50 of 3.67.

Same assay, conditions: Staphylococcus aureus, 29213
In the case of `CCCCCc1cc(O)c2c(c1)OC(C)(CCC=C(C)C)C=C2` (centres unmarked) [Cannabichromene], the IC50 is reported as 6.96 µg/mL (≈ 22.1 µM). Work on `CCCCCc1cc(O)c(C/C=C(\C)CCC=C(C)C)c(O)c1C(=O)O` [Cannabigerolic acid] yielded an IC50 of 2.05 µg/mL (≈ 5.69 µM). `O=C(O)c1cn(C2CC2)c2cc(N3CCNCC3)c(F)cc2c1=O` [Ciprofloxacin, reference compound] gave an IC50 of 0.12 µg/mL (≈ 0.362 µM) and an MIC of 0.5 µg/mL (≈ 1.51 µM). Work on `COc1cccc(OC)c1C(=O)N[C@@H]1C(=O)N2[C@@H]1SC(C)(C)[C@@H]2C(=O)O` [Methicillin, reference compound] yielded an IC50 of 0.65 µg/mL (≈ 1.71 µM) and an MIC of 2.6 ± 0.9 µg/mL (≈ 6.83 µM). For `C/C(=C\C(=O)OCCCCCCCCC(=O)O)C[C@@H]1OC[C@H](C[C@@H]2O[C@H]2[C@@H](C)[C@H](C)O)[C@@H](O)[C@H]1O` [Mupirocin, reference compound], the IC50 was 0.04 µg/mL (≈ 0.0799 µM).

Same assay, conditions: Staphylococcus aureus; S. aureus 29213; tested Conc. in μg/mL; read-out: MIC
Work on `CCCCCc1cc(O)c(C/C=C(\C)CCC=C(C)C)c(O)c1C(=O)O` [Cannabigerolic acid] yielded an MIC of 8.33 µg/mL (≈ 23.1 µM). `C/C(=C\C(=O)OCCCCCCCCC(=O)O)C[C@@H]1OC[C@H](C[C@@H]2O[C@H]2[C@@H](C)[C@H](C)O)[C@@H](O)[C@H]1O` [Mupirocin, reference compound] showed an MIC of 0.39 µg/mL (≈ 0.779 µM).
